Results published in PMC4448987, “A neuroligin-1-derived peptide stimulates phosphorylation of the NMDA receptor NR1 subunit and rescues MK-801-induced decrease in long-term potentiation and memory impairment” (Pharmacology Research & Perspectives, 2015).

Legend:
male Wistar rats [1] = assay: Spatial memory in the Morris water maze; type: in vivo; conditions: rat
Protocol: The Morris water-maze test (Morris [1984]) was performed as previously described (Kraev et al. [2011]) with slight modifications (see Data S1). Male Wistar rats (Charles River), weighing 150–200 g on the day of arrival were used. To investigate for potential effects on memory consolidation, neurolide-1 was injected immediately after the training sessions on day 1 and 2 (n = 12 in each group). To test for potential effects on memory acquisition neurolide-1 was injected 2 h before start of training on training day 1 and 2 (n = 12 in each group). Finally, to test for potential effects on MK-801-induced learning deficiencies neurolide-1 was injected 2 h before start of training on day 2 and 3 in animals, which had received an injection with MK-801 30 min earlier (n = 6–9 in each group). In a slightly modified version of the MK-801 experiments a group of animals received a neurolide-1 injection immediately after the training sessions on day 1, and then a neurolide-1 injection 2 h before start of training on day 2, preceded by an MK-801 injection 30 min earlier (n = 12 in each group). Terminally, rats were rapidly and humanely rendered unconscious by concussive stunning and euthanized by cervical dislocation.
The Morris water maze test (Morris, 1984) was conducted in a 160 cm wide circular black tank placed in a dimly lit room and filled with 21°C water up to 20 cm from the top. The tank was surrounded by visual orientation marks, and a 10 cm wide escape platform was placed 1.5 cm below the water level for it to be unseen. A video camera was placed above the tank and connected to a computerized tracking system (Ethovision 3.1, Noldus IT, Wageningen, Holland). The tank was divided into four equal-size quadrants that also served as starting positions. The latency to locate the platform, time spent swimming, and swimming speed were scored within the defined zones (i.e., total area, quadrants, and a platform circle that was 60 cm in diameter with the center in the original platform location). Prior to training, the rats were handled 2 min daily for 5 days to minimize stress during the experiments.
Reference memory training consisted of three consecutive trials daily for 3 days. Each trial began with placing the animal in the water facing the wall of the pool. The starting position differed for each trial but was identical for all animals. In each trial, the animal was allowed 90 s to locate the platform. […] After each trial, the rats were allowed 20 s of orientation time on the platform and then removed from the pool for 20 s before the next trial was initiated. After the last trial each day, the animals were dried and returned to their home cages.
To test for effects on long-term memory, the animals were tested in a probe trial 24 h after the last reference memory training. In the probe trial, the platform was removed, and the animals began from a position in a quadrant adjacent to the original platform quadrant. The rats were allowed to swim for 60 s, after which the trial was stopped.

male Wistar rats [2] = assay: Y maze test (spontaneous alternation); type: in vivo, rat
Protocol: NMDA-mediated effects of Neurolide-1 on spatial working memory performance was assessed by recording spontaneous alternation behavior in a Y maze test performed as described previously (Wegener et al. [2011]), (See Data S1). Initially, adult male Wister rats (420–490 g, n = 6–12; Charles River) were injected s.c., three times at 28, 4, and 2 h before start of the Y maze test. One group received Neurolide-1, saline, and neurolide-1 in this order. Another group received saline, MK-801, and saline in this order. A third group received neurolide-1, MK-801, and neurolide-1 in this order. And control group received saline at all times. In a second setup we tested the effect of neurolide-1 in very young male Wistar rats (4-weeks old) which received a s.c., injection of neurolide-1 or saline 2 h prior to testing them in the Y-maze (n = 11–15). Terminally, rats were rapidly and humanely rendered unconscious by concussive stunning and euthanized by cervical dislocation.
The maze was made of gray polyvinyl chloride, with three identical arms (425 mm length × 225 mm height × 145 mm width) mounted symmetrically to an equilateral triangular center section. Each rat was placed at the end of one arm and allowed to explore the apparatus freely for 8 min. The sequence and number of all arm entries were recorded for each animal throughout the testing period. An alternation was defined as entries into all three arms on consecutive occasions. Therefore, the number of maximal alternation was the total number of arm entries minus 2, and the percentage of alternation was calculated as (actual alternations / maximal alternations) × 100. The total number of arms entered during the sessions was also determined (Yamaguchi et al, 2006). Data were eliminated in cases in which the number of total arm entries was less than 10 or when the rat escaped from the Y maze. After each trial, the Y maze was cleaned with 1% Virkon S (Pharmaxim, Helsingborg, Sweden).

NX-1β = conditions: ref Gjorlund et al. [2012]; cited from earlier work
Excerpt: (§1) We recently investigated the functional role of the NL1 B insert using a peptide, termed neurolide-1, that encompasses the NL1-binding site for NX1, including the B insert.

hippocampal neurons = conditions: NX-1β expression-dependent, in contrast to the peptide without the B insert; ref Gjorlund et al. [2012]; cited from earlier work
Excerpt: as §1

[3] = in vivo intra-hippocampal treatment; ref van der Kooij et al. [2014]; cited from earlier work
Excerpt: as §1

[4] = system: NMDA receptor NR1 subunit (serine 897); assay: NMDA receptor phosphorylation assay (immunoblot, anti-phospho-Ser897-NR1) in cultured cortical neurons; type: cell-based, Wistar rat; conditions: cultured rat cortical neurons, 0.1, 0.3, 1 and 2.7 μmol/L for 5 min, eight independent experiments
Protocol: Cortical neurons were obtained from Wistar rat embryos at embryonic day 19, of both sexes, basically as previously described (Maar et al. [1997]) (see Data S1). Briefly, animals were rendered unconscious by concussive stunning and euthanized by cervical dislocation. Hereafter, the embryonic brains were collected and cortical neurons were dissociated and seeded in 60-mm tissue culture dishes coated with 1 μg/mL of poly-D-lysine (Sigma-Aldrich, St. Louis, MO) and grown for 8 days before treatment. Then, the cultures were stimulated with either the NL1 ectodomain (0.2, 0.6, 1.8, and 5.4 nmol/L) or neurolide-1 (0.1, 0.3, 1, and 2.7 μmol/L) for 5 min. The cells were lysed, and proteins were resolved by sodium dodecyl sulfate-polyacrylamide gel electrophoresis followed by immunoblotting using rabbit anti-Ser897-NR1 antibody (1:500; Millipore, Billerica, MA), mouse anti-β-tubulin antibody (1:50,000; Sigma-Aldrich), and IRDye secondary antibodies (Odyssey, Lincoln, NE). The bands were visualized using the Odyssey CLX Infrared Imaging System (Odyssey). Four independent experiments with stimulation by NL1 ectodomain and eight independent experiments with stimulation by neurolide-1 were performed.

[5] = 4-week-old male Wistar rats, single s.c. treatment 2 h before test, n = 11-15

SEGNRWSNSTKGLFQRA [neurolide-1]
learning, velocity and memory retention in probe test (memory acquisition) (male Wistar rats [1]; 10 mg/kg s.c. 2 h before training sessions on days 1 and 2, n = 12): No effect
learning on day 2 or 3 and memory retention in probe test (memory consolidation) (male Wistar rats [1]; 10 mg/kg s.c. immediately after last training session on days 1 and 2, probe test 24 h after last training, n = 12): No effect
velocity in the water maze (male Wistar rats [1]; MK-801 0.1 mg/kg s.c. with or without neurolide-1 10 mg/kg s.c. (long-term regimen), n = 12): Neither treatments affected velocity
effect on MK-801-impaired learning and memory retention, short-term treatment (male Wistar rats [1]; neurolide-1 10 mg/kg s.c. 30 min after MK-801 0.1 mg/kg and 2 h before first trial on days 2 and 3, n = 6-9): did not reduce the effect of MK-801
effect on MK-801-impaired learning (escape latency) (male Wistar rats [1]; neurolide-1 10 mg/kg s.c. after training on day 1 and on day 2, 30 min after MK-801 0.1 mg/kg and 2 h before first training session, n = 12): attenuated the effect of the NMDA receptor inhibitor on learning
effect on MK-801-impaired memory in the probe test 24 h after last training session (male Wistar rats [1]; neurolide-1 10 mg/kg s.c. after training on day 1 and on day 2, 30 min after MK-801 0.1 mg/kg, n = 12): completely abrogated the effect of MK-801
alternation rate in 4-week-old rats (male Wistar rats [2]; [5]): 76%
total number of arms visited in 4-week-old rats (male Wistar rats [2]; [5]): slightly decreased the total number of arms visited
working memory performance (alternation rate), peptide alone (male Wistar rats [2]; adult rats 420-490 g, neurolide-1 10 mg/kg s.c. 24 and 2 h before test, n = 6-12): did not affect performance
total number of arm entries, combined treatment neurolide-1 + MK-801 (male Wistar rats [2]; adult rats, neurolide-1 10 mg/kg s.c. twice plus MK-801 0.1 mg/kg, n = 6-12): significantly increased the total number of arms visited
working memory (alternation rate) in MK-801-treated animals (male Wistar rats [2]; adult rats, neurolide-1 10 mg/kg s.c. twice, MK-801 0.1 mg/kg 2 h before second neurolide-1 injection, n = 6-12): partially restored working memory
total number of arm entries, single treatment (male Wistar rats [2]; adult rats, peptide alone or MK-801 alone, n = 6-12): did not change
binding to NX-1β (NX-1β): bind NX-1β
neurite outgrowth in hippocampal neurons (hippocampal neurons): induce neurite outgrowth
sociability and aggression [3]: did not demonstrate such effects
NR1 phosphorylation on serine 897 [4]: induced NR1 phosphorylation proportionally to the increase in peptide concentration
